# Reference: patent publication US6541503B2, “Substituted oxindole derivatives as protein tyrosine kinase and as protein serine/threonine kinase inhibitors” (SmithKline Beecham Corporation, priority 1997, dated 2003)
# Where two headings read alike, the source gives them in different places.
# How the values were obtained:
# [1] = molecular target: Lck (Homo sapiens, UniProt P06239); assay: Lck peptide phosphorylation assay (Elisa or isotope based); assay type: biochemical
# Method: The src and Ick proteins were purified to homogeneity from a baculovirus expression system and preactivated before adding to assay mixtures. The maximum activation was achieved by incubating concentrated enzyme (10-30 mM) on ice for 40 min in the presence of 1 mM ATP and 10 mM MgCl2 in 100 mM HEPES, pH 7.5. The activated enzyme was diluted to 2 nM into a 50-mL reaction mixture containing 100 mM HEPES, pH 7.5. 5 mM ATP, 10 mM MgCl2, 2 mM peptide, 0.05 mg/mL BSA, and an inhibitor at varying concentrations and with or without 8 mCi/mL [γ-^33P]ATP dependent upon the method of analysis for the extent of reaction. The controls were reactions in the presence (negative controls) or absence (positive controls) of 50 mM EDTA. Reactions were allowed to proceed for 30 min at room temperature and quenched with addition of EDTA to 50 mM in 220 mL. The extent of reactions was analyzed in one of the two ways: an Elisa-based and a radioactive isotope-based. The quenched samples (200 mL) were transferred to a neutravidin coated plate (Perice) and incubated at room temperature for 40 min to allow biotinylated peptide to bind to neutravidin. The unbound peptide and the rest of the solution was washed away using a plate washer. In the Elisa format, a 200 mL HRP-PY20 anti phosphotyrosine antibody conjugate solution was added. After incubation for about 30 min, the plated was washed to remove unbound antibody-HRP conjugate. An Elisa substrate, K-blue (Neogen), was added and the Elisa reaction quenched with Red-stop (Neogen) after 15 min. The plate was read at A625 in a plate reader. In the isotope-based format, the reactions had been performed in the presence of [γ-^33P]ATP. 200 mL Scintiverce DB was added to each well of the plate with bound biotin-peptide. The plate was sealed and counted in a micro-b-counter (Wallac). IC50 values were obtained by fitting raw data to A625 (cpm)=Vmax*(1−([l]/(IC50+[l])))+b, where b is background.
# [2] = molecular target: CDK2 (Homo sapiens, UniProt P24941); assay: Cyclin dependent protein kinase substrate phosphorylation assay, CDK2; assay type: biochemical
# Method: CDK1 and CDK2 were both expressed utilizing a baculovirus expression system and were partially purified to comprise 20-80% of total protein, with no detectable competing reactions present. […] Reactions were terminated with 0.2-2 volumes of either 20% acetic acid or 50-100 mM EDTA buffered to pH 7 (substrate consumption<20%). The buffer employed in enzyme assays was either 30 mM HEPES 7.4 containing 0.15 M NaCl and 5% DMSO, the buffer 50 mM MOPS 7.0 containing 0.15 M NaCl and 5% DMSO, or the buffer 100 mM HEPES pH 7.5 containing 0.1 mg /mL BSA and 5% DMSO. Inhibitors were diluted in 100% DMSO prior to addition into the assay. Detection of peptide phosphorylation was accomplished by scintillation counting following either collection of peptide onto phosphocellulose filters (for reactions stopped with acetic acid), collection of peptide in wells of 96 well plates coated with Streptavidin (Pierce) (reactions were stopped with EDTA), or addition of Avidin coated Scintillant impregnated beads (Scintillation Proximity Assays from Amersham, reactions were stopped with EDTA).
# [3] = test system: human diploid fibroblasts (HDF-3); assay: G1-S progression assay (BrdU incorporation); assay type: cell-based
# Method: This assay is designed to determine the ability of compounds to inhibit progression of cells from G1 into S-phase. […] The protocol is as follows:
# (1) Grow human diploid fibroblasts (HDF-3) in 100 mm tissue culture dish to confluency. (2) Plate 6-7×10^3 cells/well in a 96 well plate in 100 μl of DMEM. (3) After 16-17 h add various dilutions of test compounds (0.045-100 μM). Dilute compound in DMEM containing DMSO and add 100 μl to each well so that the DMSO conc. is 0.6-0.8% in 200 μl final volume. (4) Two h after addition of compound, add 20 ul of 100 μM BrdU (final conc. 10 μM) Make 100 μM solution in DMEM from 10 mM stock solution. (5) After 4 h, add 200 μl PBS to each well and remove the contents of the wells by inverting the plate and soaking on to the paper towel. Repeat the washing step three times, with 400 ul PBS each time. (6) Fix the cells and denature the DNA by adding 200 μl fixation/denaturation solution to each well for 30-40 min. (7) Remove the fixation/denaturation solution by tapping the plate on the paper towel and add 75 ul of anti BrdU peroxidase antibody to each well. (dilute the antibody to 0.1 U/mL from 15 U/mL stock in PBS containing 1% BSA, Fraction V). Incubate the plate O/N at 4° C. (8) Remove the antibody solution and wash wells four times with 400 μl of PBS. Let the wash solution stay for 3-4 min during each wash. (9) Drain the wells and add 100 μl of chemiluminiscence Elisa reagent (Prepare the reagent 15-20 min before use to bring it to rt by mixing 100 parts of reagent A with 1 part of reagent B). (10) Read the plate in a luminometer. Take 2-3 readings within 6-7 min. Perform the following controls:
# Deoxybromouridine (BrdU), anti BrdU peroxidase antibodies, fixation/denaturation solution, chemiluminiscence reagent and BSA Fraction V, were obtained from Boehringer Mannheim. The 96-well white plate with clear bottom were purchased from Corning Costar Corporation. Dulbecco's Modified Eagle Medium containing high glucose, L-glutamine and pyridoxine HCl was obtained from GIBCO BRL.
# [4] = molecular target: CDK1 (Homo sapiens, UniProt P06493); assay: Cyclin dependent protein kinase substrate phosphorylation assay, CDK1; assay type: biochemical
# Method: Cyclin dependent protein kinase assays utilized the peptides Biotin-aminohexyl-[…] and Biotin-aminohexyl-[…]-NH2 as phosphoryl group acceptors. CDK1 and CDK2 were both expressed utilizing a baculovirus expression system and were partially purified to comprise 20-80% of total protein, with no detectable competing reactions present. Typically, assays were performed by incubating either enzyme (0.2-10 nM), with and without inhibitor, one of the two peptide substrates ([…]), [γ-^32P]ATP ([…]), and 10-20 mM Mg^2+ for periods of time generally within the range 10-120 min. Reactions were terminated with 0.2-2 volumes of either 20% acetic acid or 50-100 mM EDTA buffered to pH 7 (substrate consumption<20%). The buffer employed in enzyme assays was either 30 mM HEPES 7.4 containing 0.15 M NaCl and 5% DMSO, the buffer 50 mM MOPS 7.0 containing 0.15 M NaCl and 5% DMSO, or the buffer 100 mM HEPES pH 7.5 containing 0.1 mg /mL BSA and 5% DMSO. Inhibitors were diluted in 100% DMSO prior to addition into the assay. Detection of peptide phosphorylation was accomplished by scintillation counting following either collection of peptide onto phosphocellulose filters (for reactions stopped with acetic acid), collection of peptide in wells of 96 well plates coated with Streptavidin (Pierce) (reactions were stopped with EDTA), or addition of Avidin coated Scintillant impregnated beads (Scintillation Proximity Assays from Amersham, reactions were stopped with EDTA).
# [5] = molecular target: T1, UL97 (Human cytomegalovirus, UniProt P16788); assay: UL97 protein kinase assay, 32P transfer from ATP to histone H2B; assay type: biochemical
# T1 construct: GST; made in house; host or cells: baculovirus vector in Sf9 cells
# Method: UL97 was produced as a GST fusion protein from a baculovirus vector expressed in sf9 cells as described by He (He, et al., Journal of Virology 1997, 71, 405-11). UL97 was assayed as a protein kinase using ^32P transfer from ATP to histone H2B with detection of radiolabeled histone bound to phosphocellulose. Assay mixes for testing inhibitors of UL97 activity contained 2 mM [γ^32P]-ATP, 15 mM histone H2B, 50 mM sodiumCHES, pH 9.5, 1 M NaCl, 2 mM dithiothreitol and 10 mM MgCl2. Inhibitors were dissolved in diluted DMSO to give a final DMSO concentration in the reaction of 1% DMSO. After incubation at 20° C., the reactions were terminated by addition of 10 volumes of 75 mM phosphoric acid, 30 mM ATP, 1 mM EDTA, then were spotted onto phosphocellulose filters and washed four times with 75 mM phosphoric acid. Radioactivity was determined by liquid scintillation counting.
# [6] = molecular target: VEGFR2 (Homo sapiens, UniProt P35968); assay: VEGFR-2 kinase domain peptide phosphorylation Elisa; assay type: biochemical
# Method: The peptide substrate used in the VEGFR-2 assay was biotin-aminohexyl-[…]-NH2. The kinase domain of the enzyme was purified to homogeneity from a baculovirus expression system. The enzyme was preactivated on ice for 15 min in the presence of 100 μM ATP and 20 mM MgCl2, and stored at −80° C. until needed for assay. The activated enzyme was diluted to 0.4 nM into a 60 μl reaction containing 100 mM HEPES, pH 7.5, 5 μM ATP, 10 mM MgCl2, 5 μM peptide, 0.1 mM DTT, 0.05 mg/ml BSA, and an inhibitor at varying concentrations. The controls were reactions in the presence (negative controls) or absence (positive controls) of 50 mM EDTA. Reactions were incubated for 30 min at room temperature, and then quenched by the addition of EDTA to 60 mM in 210 μl. The quenched samples (190 μl) were transferred to a neutravidin-coated plate (Pierce) and incubated at room temperature for 40 min to allow biotinylated peptide to bind to the neutravidin. The unbound components of the reaction were removed by washing with a plate washer, then 200 μl HRP-PY20 anti-phosphotyrosine antibody conjugate was added to each well. After incubation for 40 min, the plate was washed to remove any unbound antibody. A HRP substrate, K-blue (Neogen) was added and the reaction was quenched with Red Stop (Neogen) after 20 min. The absorbance of the wells was read at A650 in a plate reader. IC50 values were obtained by fitting raw data to A650=Vmax*(1−[l]/IC50+[l])))+b, where b is background.
# [7] = Homo sapiens, Fibroblast, read-out: G1/S Chkpt IC50
# [8] = Homo sapiens, Fibroblast; read-out: G1/S Chkpt IC50
# Chain of CDK1 (P06493 whole entry, species assumed): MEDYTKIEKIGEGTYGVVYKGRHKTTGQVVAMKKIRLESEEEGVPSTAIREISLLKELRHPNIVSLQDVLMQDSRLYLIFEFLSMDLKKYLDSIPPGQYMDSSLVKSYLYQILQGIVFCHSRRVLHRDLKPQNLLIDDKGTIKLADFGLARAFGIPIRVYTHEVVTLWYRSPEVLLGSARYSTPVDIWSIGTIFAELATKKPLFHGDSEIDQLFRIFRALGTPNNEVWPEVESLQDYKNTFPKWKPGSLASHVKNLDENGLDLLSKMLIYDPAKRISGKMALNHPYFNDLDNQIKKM
# Chain of CDK1 (P14635 whole entry partner, species assumed): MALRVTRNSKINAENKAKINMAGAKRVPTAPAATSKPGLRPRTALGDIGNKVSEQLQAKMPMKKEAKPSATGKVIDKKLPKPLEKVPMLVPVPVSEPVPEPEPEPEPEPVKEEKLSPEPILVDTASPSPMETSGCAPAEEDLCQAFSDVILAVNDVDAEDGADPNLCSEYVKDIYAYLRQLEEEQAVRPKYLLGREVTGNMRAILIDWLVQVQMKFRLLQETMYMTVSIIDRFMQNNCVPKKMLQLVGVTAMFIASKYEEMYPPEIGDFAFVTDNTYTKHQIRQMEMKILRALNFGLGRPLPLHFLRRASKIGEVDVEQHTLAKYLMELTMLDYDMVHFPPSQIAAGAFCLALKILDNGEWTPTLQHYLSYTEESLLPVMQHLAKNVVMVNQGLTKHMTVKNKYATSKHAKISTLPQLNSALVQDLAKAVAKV
# T1 sequence (P16788 whole entry): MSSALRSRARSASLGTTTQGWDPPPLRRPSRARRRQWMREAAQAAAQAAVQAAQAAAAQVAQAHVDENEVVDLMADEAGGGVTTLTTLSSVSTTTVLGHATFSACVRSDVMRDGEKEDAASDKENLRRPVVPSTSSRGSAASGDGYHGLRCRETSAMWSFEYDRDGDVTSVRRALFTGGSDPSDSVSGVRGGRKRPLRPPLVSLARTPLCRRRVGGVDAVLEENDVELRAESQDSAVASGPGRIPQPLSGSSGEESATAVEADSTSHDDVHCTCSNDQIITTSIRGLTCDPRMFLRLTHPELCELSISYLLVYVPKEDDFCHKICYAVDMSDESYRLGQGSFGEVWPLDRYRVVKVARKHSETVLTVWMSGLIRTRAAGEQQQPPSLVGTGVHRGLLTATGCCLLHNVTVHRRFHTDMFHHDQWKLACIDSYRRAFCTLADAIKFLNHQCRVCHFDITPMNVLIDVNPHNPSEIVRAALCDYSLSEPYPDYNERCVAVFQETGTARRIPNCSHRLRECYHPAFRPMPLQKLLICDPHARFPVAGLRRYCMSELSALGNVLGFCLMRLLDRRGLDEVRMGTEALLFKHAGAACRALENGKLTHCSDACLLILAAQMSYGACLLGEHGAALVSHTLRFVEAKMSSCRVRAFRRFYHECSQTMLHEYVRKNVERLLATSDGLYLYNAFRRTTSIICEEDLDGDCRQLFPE
# Chain of Lck (P06239 whole entry, species assumed): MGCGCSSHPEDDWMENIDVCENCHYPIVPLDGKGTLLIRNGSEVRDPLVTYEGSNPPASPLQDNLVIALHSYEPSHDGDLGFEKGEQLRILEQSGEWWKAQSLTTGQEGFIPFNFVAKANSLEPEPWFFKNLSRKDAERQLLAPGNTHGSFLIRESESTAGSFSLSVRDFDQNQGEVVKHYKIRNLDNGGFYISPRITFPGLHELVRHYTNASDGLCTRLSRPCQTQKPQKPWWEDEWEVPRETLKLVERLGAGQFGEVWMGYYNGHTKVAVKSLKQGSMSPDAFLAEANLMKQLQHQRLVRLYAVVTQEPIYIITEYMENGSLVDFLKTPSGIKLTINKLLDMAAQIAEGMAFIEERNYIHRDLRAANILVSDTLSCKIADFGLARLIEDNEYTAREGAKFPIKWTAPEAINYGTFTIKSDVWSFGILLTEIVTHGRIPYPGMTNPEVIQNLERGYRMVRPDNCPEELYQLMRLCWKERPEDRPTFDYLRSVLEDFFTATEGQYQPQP
# Chain of VEGFR2 (P35968 834-1162 limits assumed, species assumed): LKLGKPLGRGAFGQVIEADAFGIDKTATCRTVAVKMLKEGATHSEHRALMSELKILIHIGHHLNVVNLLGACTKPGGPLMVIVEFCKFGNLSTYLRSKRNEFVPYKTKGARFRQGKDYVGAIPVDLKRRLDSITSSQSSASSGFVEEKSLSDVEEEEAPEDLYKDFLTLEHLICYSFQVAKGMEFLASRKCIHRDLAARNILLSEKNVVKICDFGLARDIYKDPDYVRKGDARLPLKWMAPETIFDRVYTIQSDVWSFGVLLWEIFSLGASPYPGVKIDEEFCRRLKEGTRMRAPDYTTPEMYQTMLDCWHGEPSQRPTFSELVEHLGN
Structure (SMILES),IC50 [1],IC50 [2],"IC50 [3, 7]",IC50 ([4]; read-out: CDK1 IC50),IC50 [5],"IC50 [3, 8]",IC50 [6],IC50 [4]
"CNS(=O)(=O)Cc1ccc(NN=C2C(=O)Nc3ccc4ncccc4c32)cc1 [Example 68, N-Methyl-C-{4-[N′-(2-oxo-2,3-dihydro-pyrrolo[3,2-f]quinolin-1-ylidene)-hydrazino]-phenyl}-methanesulfonamide]",> 100 nM,1 to 10 nM,1100 to 5000 nM,51 to 100 nM,11 to 50 nM,–,–,–
"CC(C)(CO)CNS(=O)(=O)c1ccc(NC=C2C(=O)Nc3ccc4ncsc4c32)cc1 [Example 77, N-(3-Hydroxy-2,2-dimethyl-propyl)-4-[(7-oxo-6,7-dihydro-1-thia-3,6-diaza-as-indacen-8-ylidenemethyl)-amino]-benzenesulfonamide]",–,–,–,1 to 10 nM,1 to 10 nM,1100 to 5000 nM,–,–
CNS(=O)(=O)Cc1ccc(NN=C2C(=O)Nc3cc(C)c(O)c(C)c32)cc1 [Example 99],> 100 nM,–,–,> 100 nM,1 to 10 nM,1100 to 5000 nM,> 100 nM,–
"CS(=O)(=O)Cc1ccc(NC=C2C(=O)Nc3ccc4ncsc4c32)cc1 [Example 76, 8-(4-Methylsulfonylmethyl-phenylamino-methylene)-6,8-dihydro-1-thia-3,6-diaza-as-indacen-7-one]",> 100 nM,11 to 50 nM,–,> 100 nM,–,1100 to 5000 nM,> 100 nM,–
"O=C1Nc2ccc3ncsc3c2C1=CNc1ccc(S(=O)(=O)Nc2ccccn2)cc1 [Example 72, 4-[(7-Oxo-6,7-dihydro-1-thia-3,6-diaza-as-indacen-8-ylidenemethyl)-amino]-N-pyridin-2-yl-benzenesulfonamide]",–,–,1100 to 5000 nM,–,11 to 50 nM,–,51 to 100 nM,51 to 100 nM
